ChEMBL document CHEMBL1201862, “PubChem BioAssay data set” (2004)
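In this assay, cells in 96-well plates receive the compound at five concentrations for 48 hours. Endpoints are linearly interpolated between the surrounding concentrations. At the GI50, growth is halved.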 Active and inactive are the calls of the source. Cut-off read from the data, not from the text of the source: active = GI50 up to about 1.1 µM and inactive = higher. Where a SMILES comes first, the peptide text is derived from it. The star is where a group is joined. Fmoc = O=C(OCC1c2ccccc2-c2ccccc21)*; Boc = CC(C)(C)OC(=O)*

Key:
Assay in all cases: DTP human tumour cell line panel, 48 h
MCF7 = test system: MCF7
COLO 205 = test system: COLO 205
RXF 393 = test system: RXF 393
KM12 = test system: KM12
NCI-H23 = test system: NCI-H23
RPMI-8226 = test system: RPMI-8226
UACC-257 = test system: UACC-257
K562 = test system: K562
NCI/ADR-RES = test system: NCI/ADR-RES
HCC 2998 = test system: HCC 2998
MDA-MB-435 = test system: MDA-MB-435
OVCAR-4 = test system: OVCAR-4
BT-549 = test system: BT-549
TK-10 = test system: TK-10
OVCAR-5 = test system: OVCAR-5
Malme-3M = test system: Malme-3M
PC-3 = test system: PC-3
LOX IMVI = test system: LOX IMVI
MOLT-4 = test system: MOLT-4
EKVX = test system: EKVX

Measured: GI50

CN1CC[C@]23c4c5ccc(O)c4OC2c2[nH]ncc2C[C@H]3[C@H]1C5 (stereo not given in full)
inactive: MCF7 > 100 µM | COLO 205 > 100 µM | RXF 393 > 100 µM | KM12 > 100 µM | NCI-H23 > 100 µM | RPMI-8226 > 100 µM | UACC-257 > 100 µM | K562 > 100 µM | NCI/ADR-RES > 100 µM | HCC 2998 > 100 µM | MDA-MB-435 > 100 µM | OVCAR-4 > 100 µM | BT-549 > 100 µM | TK-10 > 100 µM | OVCAR-5 > 100 µM | Malme-3M > 100 µM | PC-3 > 100 µM | LOX IMVI > 100 µM | MOLT-4 > 100 µM | EKVX > 100 µM

N#CCCN(CCN(C(=O)Nc1ccccc1)c1ccccc1)C(=O)Nc1ccccc1
inactive: MCF7 > 71.1 µM | COLO 205 53.5 µM | RXF 393 > 45.3 µM | KM12 48.3 µM | NCI-H23 > 60.1 µM | RPMI-8226 17.6 µM | UACC-257 > 100 µM | K562 29.9 µM | NCI/ADR-RES 28.6 µM | HCC 2998 > 80.7 µM | MDA-MB-435 63.8 µM | OVCAR-4 > 100 µM | BT-549 42.6 µM | TK-10 61.8 µM | OVCAR-5 > 100 µM | Malme-3M > 100 µM | PC-3 43.3 µM | LOX IMVI 49.8 µM | MOLT-4 28.8 µM | EKVX 69.5 µM

CC(C)(C)OC(=O)NCCCCC(NC(=O)OCC1c2ccccc2-c2ccccc21)C(=O)N1CCCC1C(=O)NCC(N)=O (stereo not drawn) (Fmoc-Lys(Boc)-Pro-Gly-NH2; configuration not given here)
inactive: MCF7 43.9 µM | COLO 205 28.4 µM | RXF 393 61 µM | KM12 20.7 µM | NCI-H23 94.8 µM | RPMI-8226 50.7 µM | UACC-257 > 100 µM | K562 48.1 µM | NCI/ADR-RES 33.4 µM | HCC 2998 58.2 µM | MDA-MB-435 27.6 µM | OVCAR-4 23.2 µM | BT-549 66.2 µM | TK-10 > 100 µM | OVCAR-5 > 100 µM | Malme-3M 18.3 µM | PC-3 27.9 µM | LOX IMVI 21.3 µM | MOLT-4 29.5 µM | EKVX 76.2 µM

CCOC(=O)C1=C(C)NC(C)=C(C(=O)OCC)C1c1ccc(Cl)cc1
inactive: MCF7 17.1 µM | COLO 205 16.3 µM | RXF 393 14.1 µM | KM12 17.5 µM | NCI-H23 14.4 µM | RPMI-8226 9.48 µM | UACC-257 13.4 µM | K562 9.91 µM | NCI/ADR-RES 17.7 µM | HCC 2998 14.7 µM | MDA-MB-435 14.4 µM | OVCAR-4 12.5 µM | BT-549 17.1 µM | TK-10 14.8 µM | OVCAR-5 13.4 µM | Malme-3M 18.1 µM | PC-3 14.9 µM | LOX IMVI 16.8 µM | MOLT-4 6.1 µM | EKVX 16.8 µM

c1ccc2c(c1)CCN(C1=NCCO1)C2
inactive: MCF7 > 10 µM | COLO 205 > 10 µM | RXF 393 > 10 µM | KM12 > 10 µM | NCI-H23 > 10 µM | RPMI-8226 > 10 µM | UACC-257 > 10 µM | K562 > 10 µM | NCI/ADR-RES > 10 µM | HCC 2998 > 10 µM | MDA-MB-435 > 10 µM | OVCAR-4 > 10 µM | BT-549 > 10 µM | TK-10 > 10 µM | OVCAR-5 > 10 µM | Malme-3M > 10 µM | PC-3 > 10 µM | LOX IMVI > 10 µM | MOLT-4 > 10 µM | EKVX > 10 µM

COc1ccc(C2c3c(-c4ccccc4)nn(-c4ccccc4)c3Oc3ncn(N)c(=N)c32)cc1OC (stereo not given)
inactive: MCF7 1.84 µM | COLO 205 2.23 µM | RXF 393 1.84 µM | KM12 1.83 µM | NCI-H23 2.54 µM | RPMI-8226 2.73 µM | UACC-257 1.95 µM | K562 3.82 µM | NCI/ADR-RES 2.21 µM | HCC 2998 1.74 µM | MDA-MB-435 1.85 µM | OVCAR-4 2.45 µM | BT-549 4.74 µM | TK-10 1.95 µM | OVCAR-5 3.9 µM | Malme-3M 1.6 µM | PC-3 1.95 µM | LOX IMVI 1.69 µM | MOLT-4 3.41 µM | EKVX 1.91 µM

CCCN(CCCC(NC(C)=O)C(=O)NCc1ccccc1)C(=O)N(CCCl)N=O (stereo not given)
inactive: MCF7 > 100 µM | COLO 205 24.4 µM | RXF 393 17.8 µM | KM12 21.1 µM | NCI-H23 8.75 µM | RPMI-8226 28.2 µM | UACC-257 28.8 µM | K562 16.9 µM | NCI/ADR-RES > 100 µM | HCC 2998 4.4 µM | MDA-MB-435 > 100 µM | OVCAR-4 37.9 µM | BT-549 19.2 µM | TK-10 37.8 µM | OVCAR-5 34.4 µM | Malme-3M 22.4 µM | PC-3 > 100 µM | LOX IMVI 2.11 µM | MOLT-4 2.6 µM | EKVX 31.7 µM

N#C/C(=C1C=C(Br)/C(=N\O)C=C\1Cl)c1cccc2ccccc12
inactive: MCF7 4.93 µM | COLO 205 2.29 µM | RXF 393 1.37 µM | KM12 3.92 µM | NCI-H23 13.2 µM | RPMI-8226 5.77 µM | UACC-257 6.62 µM | K562 3.51 µM | NCI/ADR-RES 4.01 µM | HCC 2998 5.77 µM | MDA-MB-435 2.62 µM | OVCAR-4 2.49 µM | BT-549 7.43 µM | TK-10 11.5 µM | OVCAR-5 3.55 µM | Malme-3M 6.37 µM | PC-3 2.89 µM | LOX IMVI 4.29 µM | MOLT-4 3.75 µM | EKVX 10.8 µM

CCOC(=O)CCC(NC(=O)c1ccc(OCc2ccc3nc(-c4ccccc4)c(Cl)nc3c2)cc1)C(=O)OCC (stereo not given)
inactive: MCF7 27.4 µM | COLO 205 > 100 µM | RXF 393 2.08 µM | KM12 > 31.6 µM | NCI-H23 17.2 µM | RPMI-8226 18.9 µM | UACC-257 > 31.6 µM | K562 3.88 µM | NCI/ADR-RES 16.7 µM | HCC 2998 > 31.6 µM | MDA-MB-435 > 31.6 µM | OVCAR-4 16.4 µM | BT-549 22.3 µM | TK-10 16.4 µM | OVCAR-5 > 31.6 µM | Malme-3M > 100 µM | PC-3 7.4 µM | LOX IMVI > 100 µM | MOLT-4 > 31.6 µM | EKVX 19.9 µM

CN(CCCNC(=O)c1nn(C)c2c1Cc1ccccc1-2)CCCNC(=O)c1nn(C)c2c1Cc1ccccc1-2
inactive: MCF7 15 µM | COLO 205 13.7 µM | RXF 393 13.9 µM | KM12 16.2 µM | NCI-H23 21.9 µM | RPMI-8226 13.3 µM | UACC-257 12.1 µM | K562 7.94 µM | NCI/ADR-RES 24.4 µM | HCC 2998 8.22 µM | MDA-MB-435 10.8 µM | OVCAR-4 16.3 µM | BT-549 21 µM | TK-10 19.1 µM | OVCAR-5 18.3 µM | Malme-3M 20.5 µM | PC-3 16.2 µM | LOX IMVI 2.49 µM | MOLT-4 4.73 µM | EKVX 19.2 µM

CCCOC(=O)c1cc(O)c(O)c(O)c1 [PROPYL GALLATE]
inactive: MCF7 42 µM | COLO 205 > 100 µM | RXF 393 19.3 µM | KM12 20.5 µM | NCI-H23 > 100 µM | RPMI-8226 > 100 µM | UACC-257 > 100 µM | K562 > 100 µM | NCI/ADR-RES 26.5 µM | HCC 2998 45.1 µM | MDA-MB-435 19.3 µM | OVCAR-4 > 100 µM | BT-549 43.8 µM | TK-10 > 100 µM | OVCAR-5 49.9 µM | Malme-3M 74.6 µM | PC-3 18.7 µM | LOX IMVI 16.1 µM | MOLT-4 5.83 µM | EKVX 27.7 µM

O=C1c2cccc3cccc(c23)C(=O)N1CCCNOCCONCCCN1C(=O)c2cccc3cccc(c23)C1=O
inactive: MCF7 64.7 µM | COLO 205 83.8 µM | RXF 393 29.4 µM | KM12 > 100 µM | NCI-H23 99.8 µM | RPMI-8226 16.9 µM | UACC-257 67.6 µM | K562 27 µM | NCI/ADR-RES 12.7 µM | HCC 2998 98.2 µM | MDA-MB-435 > 100 µM | OVCAR-4 86.3 µM | BT-549 73.3 µM | TK-10 > 100 µM | OVCAR-5 > 100 µM | Malme-3M 91.2 µM | PC-3 55.1 µM | LOX IMVI 43.5 µM | MOLT-4 12.1 µM | EKVX > 100 µM

O=c1c(C(c2ccc3c(c2)Cc2ccccc2-3)c2c(O)oc3ccccc3c2=O)c(O)oc2ccccc12
inactive: MCF7 22.9 µM | COLO 205 20.4 µM | RXF 393 18.2 µM | KM12 22.3 µM | NCI-H23 29.4 µM | RPMI-8226 44.9 µM | UACC-257 34.6 µM | K562 10 µM | NCI/ADR-RES > 100 µM | HCC 2998 18.7 µM | MDA-MB-435 31 µM | OVCAR-4 31.8 µM | BT-549 27.4 µM | TK-10 56.5 µM | OVCAR-5 23.7 µM | Malme-3M 26.2 µM | PC-3 37.8 µM | LOX IMVI 26.3 µM | MOLT-4 40.6 µM | EKVX 48.9 µM
